In patent US20140135310A1, “SULPHONAMIDE DERIVATIVES OF ALICYCLIC AMINES FOR THE TREATMENT OF CENTRAL NERVOUS SYSTEM DISEASES” (Adamed Sp. z o.o., priority 2011, published 2014):

Legend:
5-HT2C receptor = molecular target: T1, 5-HT2C receptor (Homo sapiens, UniProt P28335); assay: Radioligand binding assay, serotoninergic 5-HT2C receptors; details: test compound 1×10^−6 M
T1 construct: expressed in transfected cells; host or cells: HEK-293 cells
T1 sequence (P28335 33-458): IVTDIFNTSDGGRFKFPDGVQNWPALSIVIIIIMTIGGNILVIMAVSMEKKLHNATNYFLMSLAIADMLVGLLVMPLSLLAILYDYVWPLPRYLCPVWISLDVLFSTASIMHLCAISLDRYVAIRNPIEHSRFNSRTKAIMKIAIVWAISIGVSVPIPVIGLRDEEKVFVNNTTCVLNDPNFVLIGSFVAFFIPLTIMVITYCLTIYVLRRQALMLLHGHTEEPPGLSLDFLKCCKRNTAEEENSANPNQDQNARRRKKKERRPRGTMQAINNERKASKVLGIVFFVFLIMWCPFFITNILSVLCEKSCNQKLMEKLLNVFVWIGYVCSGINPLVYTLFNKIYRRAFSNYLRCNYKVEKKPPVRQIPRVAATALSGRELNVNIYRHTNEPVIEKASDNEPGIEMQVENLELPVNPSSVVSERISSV

α2C adrenergic receptors = molecular target: T2, α2C adrenergic receptors (Homo sapiens, UniProt P18825); assay: Radioligand binding assay, adrenergic α2C receptors; details: test compound 1×10^−6 M
T2 construct: expressed in transfected cells; host or cells: CHO cells
T2 sequence (P18825 1-462): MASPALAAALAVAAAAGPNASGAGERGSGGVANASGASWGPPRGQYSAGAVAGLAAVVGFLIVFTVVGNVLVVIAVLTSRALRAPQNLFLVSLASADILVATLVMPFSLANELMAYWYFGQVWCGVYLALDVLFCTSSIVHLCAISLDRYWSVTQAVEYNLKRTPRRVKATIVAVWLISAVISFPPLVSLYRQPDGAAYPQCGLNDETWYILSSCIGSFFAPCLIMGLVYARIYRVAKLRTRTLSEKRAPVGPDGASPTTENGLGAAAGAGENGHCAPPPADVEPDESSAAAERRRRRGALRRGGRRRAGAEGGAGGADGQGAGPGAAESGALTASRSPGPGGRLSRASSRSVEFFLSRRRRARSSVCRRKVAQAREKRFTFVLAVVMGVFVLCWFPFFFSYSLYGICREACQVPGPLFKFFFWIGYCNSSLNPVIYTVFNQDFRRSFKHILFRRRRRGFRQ
In short: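 Competitive radioligand binding at human α2C receptors, with scintillation counting. Nonspecific binding defined with excess unlabelled ligand; results given as % inhibition of control specific binding. IC50 from Hill-equation fits of competition curves; Ki via Cheng-Prusoff using radioligand concentration and Scatchard-derived KD.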

[1] = molecular target: dopaminergic receptors D2 (Homo sapiens, UniProt P14416); assay: Radioligand binding assay, dopaminergic D2 receptors; details: for inhibition at 1 µM / D2 [%]: binding assay, test compound 1×10^−6 M; for Ki: read-out: Inhibition constants Ki for D2 receptors, D2
In short: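 Ki from Cheng–Prusoff conversion of Hill-fitted IC50 values, using the assay radioligand concentration and a Scatchard-determined KD. Specific binding, scintillation-counted, excluded signal remaining under excess unlabelled ligand.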

[2] = molecular target: dopaminergic receptors D3 (Homo sapiens, UniProt P35462); assay: Radioligand binding assay, dopaminergic D3 receptors; details: test compound 1×10^−6 M
In short: (§1)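 Scintillation read-out. Specific = total − nonspecific (excess cold ligand). Data as % of control specific binding / % inhibition; IC50 by Hill fit; Ki = IC50/(1+L/KD), KD from Scatchard plot.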

5-HT2A receptor = molecular target: T3, 5-HT2A receptor (Homo sapiens, UniProt P28223); assay: Radioligand binding assay, serotoninergic 5-HT2A receptors; details: for Ki: read-out: Inhibition constants Ki, 5-HT2A; for inhibition at 1 µM / 5-HT2A [%]: binding assay result in %, Table 5a
T3 construct: purchased PerkinElmer
In short: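 Competition curves from scintillation-counted specific binding (total minus binding with excess unlabelled ligand) were Hill-fitted to give IC50, converted to Ki via Cheng-Prusoff using Scatchard-derived Kd.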

5-HT6 receptor = molecular target: T4, 5-HT6 receptor (Homo sapiens, UniProt P50406); assay: Radioligand binding assay, serotoninergic 5-HT6 receptors; details: for inhibition at 1 µM / 5-HT6 [%]: binding assay result in %, Table 5a; for Ki: read-out: Inhibition constants Ki, 5-HT6
T4 construct: purchased PerkinElmer
In short: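 Values are Ki from Cheng–Prusoff, taking IC50 from Hill nonlinear regression of competition curves and KD from a Scatchard plot. Specific binding was total minus binding with excess unlabelled ligand. Radioligand displacement was detected by scintillation counting, and data were also reported as percent of control specific binding.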

[3] = molecular target: T5, H1 histaminergic receptors (Homo sapiens, UniProt P35367); assay: Radioligand binding assay, histaminergic H1 receptors; details: human recombinant (HEK-293 cells), [3H]pyrilamine 1 nM
T5 construct: expressed in transfected cells; host or cells: HEK-293 cells
In short: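 Competition binding at human H1 receptors; specific binding taken as total minus non-specific binding in excess unlabelled ligand, scintillation read-out. IC50 from Hill-equation fit of competition curves; Ki by Cheng-Prusoff using radioligand concentration and Kd (from Scatchard plot).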

receptors D4.4 = molecular target: T6, receptors D4.4 (Homo sapiens, UniProt P21917); assay: Radioligand binding assay, dopaminergic D4 (D4.4) receptors; details: test compound 1×10^−6 M
T6 sequence (P21917 1-419): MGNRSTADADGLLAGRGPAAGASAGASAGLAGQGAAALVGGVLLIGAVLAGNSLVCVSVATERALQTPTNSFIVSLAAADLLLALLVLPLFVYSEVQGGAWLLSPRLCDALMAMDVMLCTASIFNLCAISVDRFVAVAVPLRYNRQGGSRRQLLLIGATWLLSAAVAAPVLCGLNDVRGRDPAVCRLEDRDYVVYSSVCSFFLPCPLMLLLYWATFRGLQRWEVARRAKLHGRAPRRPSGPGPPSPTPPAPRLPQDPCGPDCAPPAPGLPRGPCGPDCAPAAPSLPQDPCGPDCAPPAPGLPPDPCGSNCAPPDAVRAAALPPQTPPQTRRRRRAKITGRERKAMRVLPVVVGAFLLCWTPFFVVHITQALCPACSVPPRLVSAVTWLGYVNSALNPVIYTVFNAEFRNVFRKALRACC
In short: as §1

T3 sequence (P28223 whole entry): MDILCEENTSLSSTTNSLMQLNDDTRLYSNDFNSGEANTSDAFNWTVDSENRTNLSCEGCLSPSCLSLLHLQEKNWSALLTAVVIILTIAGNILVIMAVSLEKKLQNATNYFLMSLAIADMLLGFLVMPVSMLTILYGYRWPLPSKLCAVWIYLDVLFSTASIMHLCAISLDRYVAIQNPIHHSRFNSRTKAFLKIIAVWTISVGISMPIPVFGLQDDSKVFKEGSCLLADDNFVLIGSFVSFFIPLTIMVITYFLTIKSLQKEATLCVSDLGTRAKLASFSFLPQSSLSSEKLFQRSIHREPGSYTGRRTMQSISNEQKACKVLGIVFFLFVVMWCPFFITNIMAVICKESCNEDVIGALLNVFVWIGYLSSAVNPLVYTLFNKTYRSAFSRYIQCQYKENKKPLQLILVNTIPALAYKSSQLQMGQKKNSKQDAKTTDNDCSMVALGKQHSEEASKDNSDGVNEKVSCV
T5 sequence (P35367 whole entry): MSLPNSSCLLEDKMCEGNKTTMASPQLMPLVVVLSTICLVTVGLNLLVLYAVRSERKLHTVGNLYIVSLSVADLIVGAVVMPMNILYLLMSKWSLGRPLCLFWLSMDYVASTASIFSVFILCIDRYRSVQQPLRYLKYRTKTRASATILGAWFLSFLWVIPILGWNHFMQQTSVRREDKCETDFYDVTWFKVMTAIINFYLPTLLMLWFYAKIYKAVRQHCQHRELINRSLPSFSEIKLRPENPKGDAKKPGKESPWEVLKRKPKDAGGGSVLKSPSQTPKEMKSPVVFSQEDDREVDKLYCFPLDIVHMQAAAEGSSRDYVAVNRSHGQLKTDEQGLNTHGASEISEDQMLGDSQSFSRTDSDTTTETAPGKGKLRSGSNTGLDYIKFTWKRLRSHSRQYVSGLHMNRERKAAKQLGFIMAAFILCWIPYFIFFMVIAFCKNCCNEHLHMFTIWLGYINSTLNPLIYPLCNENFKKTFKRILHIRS
Chain of dopaminergic receptors D2 (P14416 whole entry): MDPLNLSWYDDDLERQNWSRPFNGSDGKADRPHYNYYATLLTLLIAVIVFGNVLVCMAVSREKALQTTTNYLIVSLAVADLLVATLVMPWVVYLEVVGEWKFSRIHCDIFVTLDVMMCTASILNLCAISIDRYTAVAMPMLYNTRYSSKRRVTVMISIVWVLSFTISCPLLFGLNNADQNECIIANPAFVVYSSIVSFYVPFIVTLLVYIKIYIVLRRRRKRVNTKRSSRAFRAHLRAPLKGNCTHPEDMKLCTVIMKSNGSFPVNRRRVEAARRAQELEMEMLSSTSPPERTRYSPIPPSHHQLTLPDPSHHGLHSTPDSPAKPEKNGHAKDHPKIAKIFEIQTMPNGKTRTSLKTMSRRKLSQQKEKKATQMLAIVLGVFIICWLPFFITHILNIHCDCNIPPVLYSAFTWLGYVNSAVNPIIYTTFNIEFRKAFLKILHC
T4 sequence (P50406 whole entry): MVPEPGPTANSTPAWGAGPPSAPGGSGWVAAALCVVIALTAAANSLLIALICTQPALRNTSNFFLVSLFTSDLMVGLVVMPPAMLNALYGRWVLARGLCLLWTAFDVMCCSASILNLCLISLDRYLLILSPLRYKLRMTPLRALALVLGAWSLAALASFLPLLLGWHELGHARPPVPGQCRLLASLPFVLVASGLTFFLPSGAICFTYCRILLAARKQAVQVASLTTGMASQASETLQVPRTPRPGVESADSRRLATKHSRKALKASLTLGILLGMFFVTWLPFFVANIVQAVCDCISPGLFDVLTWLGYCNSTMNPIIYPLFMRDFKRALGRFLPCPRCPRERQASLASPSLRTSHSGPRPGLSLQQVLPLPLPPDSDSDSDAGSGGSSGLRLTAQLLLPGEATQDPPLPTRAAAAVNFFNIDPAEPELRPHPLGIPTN
Chain of dopaminergic receptors D3 (P35462 whole entry): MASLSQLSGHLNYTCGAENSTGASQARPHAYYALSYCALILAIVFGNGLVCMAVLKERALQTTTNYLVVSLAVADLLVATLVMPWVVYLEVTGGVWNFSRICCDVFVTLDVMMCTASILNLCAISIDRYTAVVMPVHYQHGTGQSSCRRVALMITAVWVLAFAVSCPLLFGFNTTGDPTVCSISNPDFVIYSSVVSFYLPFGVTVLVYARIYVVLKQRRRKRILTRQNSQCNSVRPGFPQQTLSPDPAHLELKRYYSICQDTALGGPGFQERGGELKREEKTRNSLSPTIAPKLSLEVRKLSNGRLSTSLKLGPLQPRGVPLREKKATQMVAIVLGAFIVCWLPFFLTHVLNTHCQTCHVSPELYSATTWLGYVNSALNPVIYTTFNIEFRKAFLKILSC

Structure (SMILES)	inhibition at 1 µM (5-HT2C receptor) [%]	inhibition at 1 µM (α2C adrenergic receptors) [%]	inhibition at 1 µM [1] [%]	Ki [1] [nM]	inhibition at 1 µM [2] [%]	Ki (5-HT2A receptor) [nM]	inhibition at 1 µM (5-HT6 receptor) [%]	Ki (5-HT6 receptor) [nM]	inhibition at 1 µM [3] [%]	inhibition at 1 µM (receptors D4.4) [%]	inhibition at 1 µM (5-HT2A receptor) [%]	5-HT2C [%] (5-HT2C receptor)	α2C [%] (α2C adrenergic receptors)	D2 [%] [1] [%]	D3 [%] [2] [%]	5-HT2A [%] (5-HT2A receptor)	5-HT6 [%] (5-HT6 receptor)	H1 [%] [3] [%]	D4.4 [%] (receptors D4.4)
O=S(=O)(N[C@@H]1CCN(CCCc2noc3cc(F)ccc23)C1)c1csc2ccccc12 [Compound 224, N-[(3R)-1-[3-(6-Fluoro-1,2-benzoxazol-3-yl)propyl]pyrrolidin-3-yl]benzothiophene-3-sulphonamide]	71	79	98	8.7	87	1.6	99	4	60	101									
O=S(=O)(NCC1CCN(CCCc2noc3cc(F)ccc23)C1)c1ccc2ccccc2c1 (stereo not drawn) [Compound 240, N-[[1-[3-(6-Fluoro-1,2-benzoxazol-3-yl)propyl]pyrrolidin-3-yl]methyl]-naphthalene-2-sulphonamide]	81	84	95		75		93		55	57	99								
O=S(=O)(NC1CCN(CCCc2c[nH]c3ccc(Cl)cc23)C1)c1cccc(F)c1 (stereo not drawn) [Compound 82, N-[1-[3-(5-Chloro-1H-indol-3-yl)propyl]pyrrolidin-3-yl]-3-fluoro-benzene-sulphonamide]	82	101	90		94		93	37	61	94	91								
O=S(=O)(NC1CN(CCOc2cccc3c2OCCO3)C1)c1ccc(Cl)cc1 [Compound 92, 4-Chloro-N-[1-[2-(2,3-dihydro-1,4-benzodioxan-8-yloxy)ethyl]azetidin-3-yl]benzene-sulphonamide]												52	76	49	60	60	23	6	35
Cc1cc(S(=O)(=O)NCC2CCN(CCOc3cccc4c3OCCO4)C2)c(C)s1 (stereo not drawn) [Compound 312, N-[[1-[2-(2,3-Dihydro-1,4-benzodioxin-5-yloxy)ethyl]pyrrolidin-3-yl]methyl]-2,5-dimethylthiophene-3-sulphonamide]	55	94	36		36		19		35	52	87								
Cn1ccc2cc(S(=O)(=O)NC3CCN(CCCc4noc5cc(F)ccc45)C3)ccc21 (stereo not drawn) [Compound 218, N-[1-[3-(6-Fluoro-1,2-benzoxazol-3-yl)propyl]pyrrolidin-3-yl]-1-methyl-indole-5-sulphonamide]	82	94	99		95		95		77	86	100								
O=S(=O)(NC1CN(CCOc2cccc3[nH]ccc23)C1)c1ccc(F)cc1 [Compound 46, 4-Fluoro-N-[1-[2-(1H-indol-4-yloxy)ethyl]azetidin-3-yl]benzene-sulphonamide]	21	101	93		104		9		6	72	34								
O=S(=O)(NCC1CCN(CCCc2noc3cc(F)ccc23)C1)c1ccc2cc(Cl)ccc2c1 (stereo not drawn) [Compound 237, 6-Chloro-N-[[1-[3-(6-fluoro-1,2-benzoxazol-3-yl)propyl]pyrrolidin-3-yl]methyl]naphthalene-2-sulphonamide]	79	82	97		89		87		66	48	97								
O=S(=O)(N[C@@H]1CCN(CCCc2noc3cc(F)ccc23)C1)c1cc2ccccc2o1 [Compound 214, N-[(3R)-1-[3-(6-Fluoro-1,2-benzoxazol-3-yl)propyl]pyrrolidin-3-yl]benzo-furan-2-sulphonamide]	65	74	97	2.8	89	2.1	97	7.5	52	61									
O=S(=O)(NC1CCN(CCCc2noc3cc(F)ccc23)C1)c1cc2ccccc2s1 (stereo not drawn) [Compound 25, N-[1-[3-(6-Fluoro-1,2-benzoxazol-3-yl)propyl]pyrrolidin-3-yl]-benzothiophene-2-sulphonamide]	83	90	98		97		95		75	84	102								
O=S(=O)(NC1CCN(CCOc2cccc3[nH]ccc23)CC1)c1ccccc1 [Compound 55, N-[1-[2-(1H-Indol-4-yloxy)ethyl]-4-piperidine]benzenesulphonamide]												30	99	44	93	94	3	0	31
COc1ccc2cc(S(=O)(=O)N[C@H]3CCN(CCCc4noc5cc(F)ccc45)C3)ccc2c1 [Compound 231, N-[(3S)-1-[3-(6-Fluoro-1,2-benzoxazol-3-yl)propyl]pyrrolidin-3-yl]-6-methoxy-naphthalene-2-sulphonamide]	75	89	95	6.4	91	1.9	86	79	54	89									
Cc1cc(S(=O)(=O)N[C@H]2CCN(CCCc3noc4cc(F)ccc34)C2)c(C)s1 [Compound 223, N-[(3S)-1-[3-(6-Fluoro-1,2-benzoxazol-3-yl)propyl]pyrrolidin-3-yl]-2,5-dimethyl-thiophene-3-sulphonamide]	65	60	89		57		94		52	92	99								
